Experimental data from publication PMC5442763, “Selective Inhibition of ADAM17 Efficiently Mediates Glycoprotein Ibα Retention During Ex Vivo Generation of Human Induced Pluripotent Stem Cell‐Derived Platelets” (Stem Cells Translational Medicine, 2016).

Tests used:
[1] = system: human iPSC-derived MKs and platelets; experiment: Generation of MKs and platelets from human iPSC-derived HPCs at 37°C, flow cytometry; assay type: cell-based
Protocol: (§1) Directed differentiation to MKs and platelets from iPSCs and ESCs was performed as described previously. Briefly, 3 × 10^4 HPCs derived from iPS‐sacs on C3H10T1/2 feeder cells in the presence of 20 ng/ml vascular endothelial growth factor were transferred on day 14 of culture onto C3H10T1/2 feeder cells in differentiation medium supplemented with 50 ng/ml stem cell factor, 100 ng/ml thrombopoietin, 25 U/ml heparin sodium, and test compounds at 24°C or 37°C. The medium was refreshed every 3 days, and nonadherent cells were collected and analyzed on days 22–24.
(§2) Flow cytometric analysis was performed as previously described. Briefly, iPSC‐ and ESC‐derived MKs on days 22–24 and platelets in their supernatants were stained with combinations of antibodies for 30 minutes on ice (for MKs) or at room temperature (for platelets). Samples of MKs/platelets were then washed, diluted with staining medium (phosphate‐buffered saline containing 3% fetal bovine serum), and analyzed using flow cytometry (FACSAria; BD). Trucount tubes (BD) were used to quantify the MKs and platelets.

[2] = system: platelets derived from human ESCs; experiment: GPIbα retention in platelets derived from human ESCs; assay type: cell-based; settings: KP-457 15 µmol/L
Protocol: as §1, §2
Fig. S4. The inhibitory effect of KP-457 on GPIbα shedding in platelets derived from human
ESCs and immortalized megakaryocyte progenitor cell lines (imMKCLs).
Percentages of GPIbα-expressing CD41a+ platelets produced from human ESCs (A) and […]

Human ADAM17 = target: T1, Human ADAM17 (Homo sapiens, UniProt P78536); experiment: MMP and ADAM activity assay (fluorescence-based, cell-free): ADAM17; assay type: biochemical
T1 construct: purchased R&D Systems
Source text: (§3) Human ADAM17, ADAM10, and MMP17 were from R&D Systems (Minneapolis, MN, http://www.rndsystems.com), and human MMP1, MMP2, MMP3, MMP8, MMP9, MMP13, and MMP14 were from EMD Millipore. MMP1, MMP2, MMP8, MMP9, MMP13, and MMP17 were activated using p‐aminophenylmercuric acetate (Sigma‐Aldrich) before testing. Fluorogenic substrates for measuring activity of ADAM10 and ADAM17 [Nma‐[…](Dnp)r‐NH2, based on the cleavage site of TNF‐α]; MMP1, MMP9, MMP13, and MMP14 [Dnp‐P‐Cha‐GC(Me)HAK(N‐Me‐Abz)‐NH2]; MMP3 [MOCAc‐RPKPVE‐Nva‐WRK(Dnp)‐NH2]; and MMP2, MMP8, and MMP17 [MOCAc‐PLGL‐A2pr(Dnp)‐AR‐NH2] were all provided by Peptide Institute (Osaka, Japan, https://www.peptide.co.jp/en) and used as substrates. In addition, inhibitory activities were measured using LC/MS/MS with a GPIbα‐based substrate peptide ([…]), a C terminal‐based standard peptide ([…]), and an internal standard peptide ([…]). These peptides were synthetized by Scrum (Tokyo, Japan, http://www.scrum‐net.co.jp/english/top_en.htm).

dogs = experiment: Good laboratory practice systemic toxicity study in dogs; assay type: in vivo; settings: intravenously once a day for 4 weeks, doses up to 3 mg/kg (maximal dose tested), data not shown
human MMP9 = target: T2, human MMP9 (Homo sapiens, UniProt P14780); experiment: MMP and ADAM activity assay (fluorescence-based): MMP9; assay type: biochemical; settings: cell-free fluorescence assay
T2 construct: purchased EMD Millipore
Source text: as §3

human MMP13 = target: T3, human MMP13 (Homo sapiens, UniProt P45452); experiment: MMP and ADAM activity assay (fluorescence-based): MMP13; assay type: biochemical; settings: cell-free fluorescence assay
T3 construct: purchased EMD Millipore
Source text: as §3

[3] = system: thrombus formation in NOG mice; experiment: In vivo imaging of thrombus formation by transfused iPSC platelets; parameters: species or system mouse; settings: 1 × 10^7 CD41a+ iPSC platelets generated with or without KP-457, irradiated NOG mice, laser injury; p = .0556
Protocol: The procedure was identical to that in the previous report. Small vessels (<25 μm in diameter) within mesenteric capillaries of male NOD/SCID/IL‐2Rg‐null (NOG) mice were evaluated. NOG mice were purchased from the Central Institute for Experimental Animals (Kawasaki, Kanagawa, Japan, http://www.ciea.or.jp/en/index.html).

[4] = KP-457 15 μmol/l, GM-6001 50 μmol/l, p38 MAP kinase inhibitor 10 μmol/l

T1 sequence (P78536 215-824): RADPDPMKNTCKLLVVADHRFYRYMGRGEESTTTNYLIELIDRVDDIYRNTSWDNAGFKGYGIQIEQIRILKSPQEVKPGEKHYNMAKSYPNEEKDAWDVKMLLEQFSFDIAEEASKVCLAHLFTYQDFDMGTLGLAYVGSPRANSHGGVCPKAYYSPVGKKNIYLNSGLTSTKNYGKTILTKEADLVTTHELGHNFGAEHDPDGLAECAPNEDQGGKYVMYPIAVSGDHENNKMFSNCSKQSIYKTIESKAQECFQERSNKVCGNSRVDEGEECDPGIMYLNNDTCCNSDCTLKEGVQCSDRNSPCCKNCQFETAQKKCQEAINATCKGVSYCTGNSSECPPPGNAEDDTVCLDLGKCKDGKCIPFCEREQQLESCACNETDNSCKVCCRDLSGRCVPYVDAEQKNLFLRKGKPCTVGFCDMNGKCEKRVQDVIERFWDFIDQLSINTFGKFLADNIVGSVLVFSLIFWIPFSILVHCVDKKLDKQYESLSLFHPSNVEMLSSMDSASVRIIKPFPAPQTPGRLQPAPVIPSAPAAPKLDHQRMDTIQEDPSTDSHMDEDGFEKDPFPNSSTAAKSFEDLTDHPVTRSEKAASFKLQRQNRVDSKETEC
T2 sequence (P14780 107-707 limits assumed): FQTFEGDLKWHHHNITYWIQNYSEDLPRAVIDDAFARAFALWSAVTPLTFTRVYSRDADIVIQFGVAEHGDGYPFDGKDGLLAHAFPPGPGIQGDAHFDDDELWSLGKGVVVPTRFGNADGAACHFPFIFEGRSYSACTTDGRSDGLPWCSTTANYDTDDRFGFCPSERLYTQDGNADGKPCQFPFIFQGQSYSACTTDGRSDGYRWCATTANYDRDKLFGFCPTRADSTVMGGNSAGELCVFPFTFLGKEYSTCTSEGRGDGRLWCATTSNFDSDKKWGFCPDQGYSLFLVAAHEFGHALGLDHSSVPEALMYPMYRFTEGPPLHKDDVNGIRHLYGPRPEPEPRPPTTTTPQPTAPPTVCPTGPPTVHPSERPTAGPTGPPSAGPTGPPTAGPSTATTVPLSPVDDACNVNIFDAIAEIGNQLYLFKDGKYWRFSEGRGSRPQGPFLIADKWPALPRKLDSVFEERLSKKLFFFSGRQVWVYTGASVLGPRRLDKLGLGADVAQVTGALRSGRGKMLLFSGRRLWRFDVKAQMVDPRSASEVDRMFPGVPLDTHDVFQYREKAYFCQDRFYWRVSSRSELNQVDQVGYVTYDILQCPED

Structure (SMILES): CC#CCOc1ccc(S(=O)(=O)CC(c2ccc(CNS(C)(=O)=O)cc2)N(O)C=O)cc1 (stereo not shown) [KP-457, N‐(2‐{[4‐(but‐2‐yn‐1‐yloxy)phenyl]sulfonyl}‐1‐[4‐(methylsulfonamidomethyl)phenyl]ethyl)‐N‐hydroxyformamide]
- number of CD41a+ total iPSC platelets [1, 4]: no significant effect
- retention of GPIbα expression on CD41a+ iPSC-derived platelets [1, 4]: able to retain
- number of CD41a+ iPSC-derived MKs ([1]; KP-457 15 μmol/l, GM-6001 50 μmol/l, p38 MAP kinase inhibitor 10 μmol/l, MK differentiation and platelet production phases): no significant effect
- GPIbα+ population in human iPSC-derived CD41a+ platelets ([1]; KP-457 15 μmol/l, representative FACS plot, vehicle 48.3%): 80.7%
- GPIbα retention by iPSC-derived platelets, inhibitor only during platelet production phase ([1]; days 21–23 or 24, KP-457 15, BIRB796 10, U0126 10, BMS345541 10, Z-VAD 10, Ro31-8220 3 μmol/l): more effectively sustained
- GPIbα retention in platelets derived from human ESCs [2]: consistently observed
- potency relative to GM-6001, inhibition of cleavage of the TNF-α sequence (Human ADAM17; cell-free enzyme assay): 10 times
- selectivity for ADAM17 over other MMPs and ADAM10 (Human ADAM17; cell-free enzyme assays): > 50 times
- IC50 (Human ADAM17; cell-free fluorescence assay, TNF-α cleavage site substrate): 0.0111 µM
- systemic toxicity (dogs): neither genotoxicity nor systemic toxicity
- IC50 (human MMP9): 5.41 µM
- IC50 (human MMP13): 0.93 µM
- iPSC platelets contributing to thrombus formation in vivo [3]: higher number of iPSC platelets contributed to thrombus formation
